According to the supplement of paper PMC10307832:

Experiments:
Assay in all cases: relative viability (nuclei count vs DMSO), 5 days (fraction); higher = more cells survive
Veliparib + Tozasertib = compound: C[C@]1(c2nc3c(C(N)=O)cccc3[nH]2)CCCN1 [Veliparib] + Cc1cc(Nc2cc(N3CCN(C)CC3)nc(Sc3ccc(NC(=O)C4CC4)cc3)n2)n[nH]1 [Tozasertib] (partner 0.1 µM)
How it was run: (§1)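 Cells from lung cancer lines were seeded into 1536-well plates and, one day later, dosed by pin tool. Treatments were either a single drug or a fixed dose of an anchor drug with five library-drug doses (not always all listed) in √10 steps. After 5 days, nuclei were stained in a one-step fixation (final 0.05% Triton X-100, 1% formaldehyde, 1 ug/ml Hoechst) and counted on 4× images, and relative viability is the treated-to-vehicle nuclei ratio, as the median of duplicate plates.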

Veliparib + Pemetrexed = compound: C[C@]1(c2nc3c(C(N)=O)cccc3[nH]2)CCCN1 [Veliparib] + Nc1nc2[nH]cc(CCc3ccc(C(=O)N[C@@H](CCC(=O)O)C(=O)O)cc3)c2c(=O)[nH]1 [Pemetrexed] (partner 0.2 µM)
How it was run: as §1

[1] = compound: COC1=CC=C(C=C1)CN2C=CC3=C2C=C(C=C3)C(=O)NO + Cc1nc(Nc2ncc(C(=O)Nc3c(C)cccc3Cl)s2)cc(N2CCN(CCO)CC2)n1 [Dasatinib] (partner 0.075 µM)
How it was run: as §1

Veliparib + Bortezomib = compound: C[C@]1(c2nc3c(C(N)=O)cccc3[nH]2)CCCN1 [Veliparib] + CC(C)C[C@H](NC(=O)[C@H](Cc1ccccc1)NC(=O)c1cnccn1)B(O)O [Bortezomib] (partner 0.002 µM)
How it was run: as §1

Row | Cell Line | relative viability (Veliparib + Tozasertib; first compound 0.02 µM) | relative viability (Veliparib + Tozasertib; first compound 0.06325 µM) | relative viability (Veliparib + Tozasertib; first compound 0.2 µM) | relative viability (Veliparib + Tozasertib; first compound 0.6325 µM) | relative viability (Veliparib + Tozasertib; first compound 2 µM) | relative viability (Veliparib + Pemetrexed; first compound 0.02 µM) | relative viability (Veliparib + Pemetrexed; first compound 0.06325 µM) | relative viability (Veliparib + Pemetrexed; first compound 0.2 µM) | relative viability (Veliparib + Pemetrexed; first compound 0.6325 µM) | relative viability (Veliparib + Pemetrexed; first compound 2 µM) | relative viability ([1]; first compound 0.08 µM) | relative viability ([1]; first compound 0.253 µM) | relative viability ([1]; first compound 0.8 µM) | relative viability ([1]; first compound 2.53 µM) | relative viability ([1]; first compound 8 µM) | relative viability (Veliparib + Bortezomib; first compound 0.02 µM) | relative viability (Veliparib + Bortezomib; first compound 0.06325 µM) | relative viability (Veliparib + Bortezomib; first compound 0.2 µM) | relative viability (Veliparib + Bortezomib; first compound 0.6325 µM) | relative viability (Veliparib + Bortezomib; first compound 2 µM)
1 | 201T | 0.935 | 0.952 | 0.961 | 0.946 | 0.921 | 0.345 | 0.334 | 0.355 | 0.352 | 0.362 | 0.625 | 0.662 | 0.607 | 0.573 | 0.545 | 1.09 | 1.07 | 1.06 | 1.18 | 1.08
2 | A-427 | – | 0.232 | 0.181 | 0.198 | 0.283 | 1 | 0.966 | 0.946 | 1.03 | 1.04 | – | 0.75 | 0.769 | 0.669 | 0.503 | 0.969 | 0.936 | 0.929 | 0.99 | 0.959
3 | ABC-1 | – | 0.196 | 0.137 | 0.175 | 0.17 | – | – | – | – | – | – | 0.566 | 0.589 | 0.676 | 0.488 | – | 0.266 | 0.257 | 0.259 | 0.304
4 | BEN | 0.456 | 0.558 | 0.524 | 0.477 | 0.481 | 0.576 | 0.771 | 0.743 | 0.795 | 0.631 | 0.305 | 0.264 | 0.297 | 0.347 | 0.317 | 0.676 | 0.739 | 0.827 | 0.87 | 0.78
5 | CAL-12T | 0.317 | 0.376 | 0.327 | 0.318 | 0.369 | 1.23 | 1.06 | 1.32 | 1.09 | 1.3 | 0.426 | 0.613 | 0.478 | 0.414 | 0.408 | 0.862 | 0.72 | 0.952 | 1.18 | 0.971
6 | COR-L23 | 0.229 | 0.249 | 0.257 | 0.216 | 0.172 | 0.206 | 0.202 | 0.201 | 0.181 | 0.202 | 0.388 | 0.463 | 0.556 | 0.524 | 0.427 | 0.92 | 0.991 | 1.01 | 0.966 | 0.967
7 | COR-L 105 | 0.35 | 0.307 | 0.434 | 0.313 | 0.346 | 1.27 | 1.09 | 1.27 | 1.19 | 1.01 | 0.287 | 0.32 | 0.35 | 0.323 | 0.237 | 0.735 | 0.633 | 0.548 | 0.783 | 0.83
8 | Calu-6 | – | – | – | – | – | – | – | – | – | – | – | – | – | – | – | 1.1 | 0.966 | 0.926 | 1.02 | 0.859
9 | ChaGo-K-1 | 0.206 | 0.217 | 0.219 | 0.199 | 0.24 | 0.227 | 0.266 | 0.245 | 0.246 | 0.257 | – | 0.589 | 0.631 | 0.584 | 0.486 | – | 0.863 | 1.09 | 1.05 | 0.804
10 | EBC-1 | – | – | – | – | – | – | – | – | – | – | – | – | – | – | – | 0.615 | 0.539 | 0.527 | 0.479 | 0.57
11 | EKVX | 0.333 | 0.362 | 0.426 | 0.375 | 0.37 | – | 0.391 | 0.421 | 0.461 | 0.444 | 0.552 | 0.576 | 0.592 | 0.709 | 0.568 | 0.806 | 0.893 | 0.888 | 0.978 | 1.16
12 | EMC-BAC-2 | 0.306 | 0.29 | 0.339 | 0.286 | 0.286 | 0.492 | 0.408 | 0.438 | 0.442 | 0.502 | 0.324 | 0.333 | 0.347 | 0.357 | 0.298 | 1.11 | 1.03 | 1.07 | 1.05 | 1.09
13 | EPLC-272H | 0.273 | 0.227 | 0.224 | 0.2 | 0.249 | – | 0.273 | 0.359 | 0.283 | 0.418 | 0.36 | – | 0.434 | 0.389 | 0.199 | – | 0.84 | 0.964 | 0.85 | 0.878
14 | H3255 | 0.624 | 0.664 | 0.704 | 0.612 | 0.538 | 0.541 | 0.561 | 0.548 | 0.53 | 0.629 | 0.41 | 0.417 | 0.348 | 0.389 | 0.276 | 0.729 | 0.835 | 0.737 | 0.827 | 1.02
15 | HARA | 0.119 | 0.117 | 0.117 | 0.0991 | 0.129 | 0.254 | – | 0.219 | 0.265 | 0.261 | – | 0.284 | 0.256 | 0.177 | 0.189 | 1.13 | 1.1 | 0.995 | 1.11 | 1.16
16 | HCC-15 | 0.361 | 0.356 | 0.464 | 0.362 | 0.354 | 0.219 | 0.214 | 0.228 | 0.2 | 0.239 | 0.433 | 0.675 | 0.65 | 0.626 | 0.586 | 0.781 | 1.02 | 0.991 | 0.932 | 0.984
17 | HCC-44 | 1.04 | – | 1.15 | 0.956 | 0.919 | 0.606 | 0.656 | 0.655 | 0.59 | 0.63 | – | – | – | – | – | 0.885 | 0.759 | 0.879 | 0.829 | 0.846
18 | HCC-78 | 0.402 | 0.381 | 0.404 | 0.35 | 0.404 | 0.909 | 0.925 | 0.91 | 0.494 | 0.853 | 0.436 | 0.362 | 0.391 | 0.449 | 0.39 | 0.537 | 0.482 | 0.639 | 0.428 | 0.474
19 | HCC-366 | 0.159 | 0.147 | 0.108 | 0.137 | 0.112 | 0.178 | 0.204 | 0.227 | 0.185 | 0.207 | 0.483 | 0.639 | 0.658 | 0.526 | 0.574 | 1.06 | 1.05 | 1.01 | 1.07 | 1.07
